From patent US8173133B2, “Acyl pseudodipeptides which carry a functionalized auxiliary arm” (OM Pharma, priority 1999, dated 2012) come the findings set out here.

Series [1] has as its system Limulus Amoebocyte Lysate.
Series [2] relates to predendritic cells (DC-6). Kind of series: dendritic cell differentiation test: FITC-Dextran take-up. The class given is cell-based, human. As to conditions: for Dextran % CD: products redissolved in pyrogen-free water, % of dendritic cells; for Dextran Fluorescence: mean fluorescence value. Here is the method: The ability of products of the invention to induce maturation of predendritic cells into dendritic cells was assessed. The following parameters were measured: FITC-Dextran conjugate take-up and expression of CD83, CD86 surface markers.
Mononucleated cells of peripheral blood are isolated from buffy coats of healthy donors. Purified monocytes by adherence selection are resuspended in RPMI-1640 medium containing 10% of foetal calf serum (FCS), GM-CSF and IL-4 (10 ng/ml) at a density of 1×10^6 cells/ml. Cells are divided into Petri Dishes (10×10^6 cells per dish) and cultured for 6 days with a change to fresh medium after 3 days. Cells thus obtained are called predendritic cells (DC-6). Maturation of predendritic cells into mature dendritic cells is achieved by incubating cells with diluted solutions of the products or LPS (positive control) for 3 more days (see product section below). At day 9 (DC-9), cells are harvested and analyzed for different indicators of dendritic cell maturation: assessment of CD83, CD86 surface marker expression as well as of their ability to take up FITC-Dextran conjugate. All these parameters are analyzed by an EPICS-XL-MCL model FACS (Coulter Immunology, Hialeah, […]).
Expression of surface markers is given as % of mean fluorescence of LPS-activated cells (positive control); FITC-Dextran conjugate take-up rate is calculated based on take-up of cells maintained in basic medium and is expressed in %.
Solutions are incubated at 37° C. for 20 minutes, subjected to vigorous stirring during 3 minutes and then diluted to 100 μg/ml in RPMI-1640 culture medium and used in diluted state at concentrations ranging from 10 μg/ml to 0.03 μg/ml. Reference Product: E. coli lipopolysaccharide (LPS, DIFCO, Detroit, Mich., U.S.A.), as a 5 mg/ml stock solution in PBS. An intermediate 100 μg/ml solution is prepared in RPMI 1640 culture medium. Concentrations of dilute solutions being tested range from 1 μg/ml to 0.03 μg/ml.
In another series of experiments, all acyl dipeptide-like compounds were freeze-dried and directly redissolved into pyrogen-free water. Different products as well as LPS control are tested at a concentration of 10 μg/ml. Results are given as % of dendritic cells and mean fluorescence value for dextran phagocytosis or CD86 surface marker expression.
Immature dendritic cells (DC-6) resulting from monocyte differentiation, through the joint action of GM-CSF and IL-4, are able to incorporate FITC-Dextran conjugate. During the maturation process, cells lose their ability to incorporate the FITC-Dextran conjugate. Assays are conducted upon reaching the DC-9 differentiation stage.

For series [3], the system named is bone marrow stem cells. Kind of series: bone marrow stem cell proliferation (XTT). Type of series: cell-based, C57/BL6 mice. As to conditions: for Max amplitude: 7 days, XTT 492 nm; for Min amplitude: blank ± 3× standard deviation; for Max concentration: concentration at maximum amplitude; for EC50 conc: concentration corresponding to 50% of maximum amplitude; for Min concentration: lowest concentration inducing a significant proliferation. An excerpt:
6-week old male C57/BL6 mice are killed by CO2 inhalation. The hip, femur, tibia and hind leg bones are removed. The marrow is extracted from the bone lumen by injecting Dulbecco's Modified Eagle Medium (DH medium) from the end portions which had been excised. The stem cells are washed and suspended again in DH medium supplemented with 20% foetal calf serum (FCS) The cell concentration is adjusted to 500000 cells/ml.
Products previously dissolved in DH medium supplemented with 20% FCS, amino acids and antibiotics are serially diluted directly into a microtiter plate. The products are tested in triplicate and each microtiter plate includes a negative control containing plain medium. The final volume in each well is 100 μl.
100 μl of the cell suspension are added to diluted solutions of products and the cells are incubated for 7 days in an incubator at 37° C., under 8% CO2 and a moisture saturated atmosphere. Cell proliferation is determined by measuring the […] of a chromogenic substrate XTT (2,3-bis[2-methoxy-4-nitro-5-sulphophenyl]-2H-tetrazolium-5-carboxanilide) in mitochondria of viable cells.
At the end of the incubation period, 50 μl of the XTT substrate solution (1 mg/ml XTT+0.008 mg/ml phenazine methosulfate) are added to each well. After an 8 hour incubation period at 37° C. under 8% CO2 in a moisture saturated incubator, the microtiter plates are read with a spectrophotometer at 492 nm against a reference sample at 690 nm.
Results are expressed as mean value±standard deviation and plotted as a dose versus response curve. Values for a negative control composed of DH medium (mean±standard deviation) are also graphically shown.
From this dose versus response curve, 3 curve variables are computed:
Max: maximum curve amplitude and corresponding concentration
EC50: concentration corresponding to 50% of maximum amplitude
Min: lowest concentration inducing a significant proliferation corresponding to the blank±3× standard deviation value
Concentration values corresponding to EC50 and Min are determined from line segments joining different points on the curve.
If the curve has no plateau phase but an ascending configuration for the highest concentration being tested, a “>” sign is shown before Max and EC50 values.
A general note: Tetrazolium dyes change colour on reduction, which living cells bring about.

In brackets after ≈: the same amount, converted by molar mass. Read-outs that look alike come from different tables or passages of the source. Where only a bound is given, the exact number is not on record here.

`CCCCCCCCCCCC(=O)O[C@H](CCCCCCCCCCC)CC(=O)N[C@H](CC(=O)NCCCN)C(=O)NCCC[C@H](CO)NC(=O)C[C@H](O)CCCCCCCCCCC` [OM-197-AP, N—[(R)-3-dodecanoyloxytetradecanoyl]-D-aspartic acid, α-N-{(4R)-5-hydroxy-4-[(R)-3-hydroxy-tetradecanoylamino]pentyl}-amide β-N-(3-aminopropyl)amide]: in series [1], the “LAL EU/mg of product” value was <0.5 EU/mg of product and the “LAL ng of LPS equivalent per mg of product” value (from here on “LAL ng … per mg of product”) is <0.04 ng of LPS equivalent per mg of product. Also, in series [2] (10 μg/ml), the “Dextran % CD” value was 56.1% and the “Dextran Fluorescence” value is reported as 4.4. For the same compound, in series [3], the Max amplitude came out at 1.49 O.D, the Min amplitude is listed as 0.80 O.D, the Max concentration is 25 µg/mL and the EC50 conc stood at 2.2 µg/mL (≈ 2.38 µM). In addition, in series [3], the Min concentration came out at 0.41 µg/mL.

On to `CCCCCCCCCCCC(=O)O[C@H](CCCCCCCCCCC)CC(=O)N[C@H](CC(=O)O)C(=O)NCCC[C@H](COC(=O)CCCCCNC(=O)CCC(=O)OC[C@H]1O[C@@H](n2cc(C)c(=O)[nH]c2=O)C[C@@H]1N=[N+]=[N-])NC(=O)C[C@H](O)CCCCCCCCCCC` [OM-197-MC-AC-Succ-AZT], for which the “LAL ng … per mg of product” value in series [1] (1 EU = 0.08 ng E. coli 055:B5 LPS) is given as 0.11 ng of LPS equivalent per mg of product. For the same compound, the “LAL EU/mg of product” value in series [1] (acyl-dipeptide-like compounds, diluted 0.1 mg/ml solution) is reported as 1.34 EU/mg of product. In series [2] (10 μg/ml), the “ability to induce differentiation of predendritic cells into dendritic cells” value is listed as “significant ability to induce differentiation into dendritic cells”, the “Dextran % CD” value is on record as 62.2% and the “Dextran Fluorescence” value was 4.8. Also, in series [3], the Max amplitude is 1.08 O.D, the Min amplitude came to 0.80 O.D, the Max concentration stood at 12.5 µg/mL and the EC50 conc is 3.3 µg/mL (≈ 2.48 µM). Further, in series [3], the Min concentration came out at 2.11 µg/mL.

In the case of `CCCCCCCCCCCC(=O)O[C@H](CCCCCCCCCCC)CC(=O)N[C@H](CC(=O)N[C@@H](CCCCN)C(=O)O)C(=O)NCCC[C@H](COC(=O)CCCCCN)NC(=O)C[C@H](O)CCCCCCCCCCC` [OM-197-Lys-AC], in series [1], the “LAL EU/mg of product” value was <2.5 EU/mg of product and the “LAL ng … per mg of product” value is reported as <0.2 ng of LPS equivalent per mg of product. Also, in series [2] (10 μg/ml), the “Dextran % CD” value is on record as 92.2% and the “Dextran Fluorescence” value was found to be 6.8. In series [3], the Max amplitude was over 2.02 O.D, the Min amplitude came out at 0.80 O.D, the Max concentration is over 50 µg/mL and the EC50 conc was over 14.6 µg/mL. This compound had a Min concentration in series [3] of 0.90 µg/mL.

`CCCCCCCCCCCC(=O)O[C@H](CCCCCCCCCCC)CC(=O)N[C@H](CC(=O)O)C(=O)NCCC[C@H](COC(=O)CCCCC(O)CO)NC(=O)C[C@H](O)CCCCCCCCCCC` (stereo partly drawn) [OM-197-MC-FV5, N—[(R)-3-dodecanoyloxytetradecanoylamino]-D-aspartic acid, α-N-{(4R)-5-hydroxy-4-[(R)-3-hydroxytetra-decanoylamino]-pentyl}amide 5-O-(6,7-dihydroxyheptanoate)]: in series [1], the “LAL EU/mg of product” value is recorded as 49.3 EU/mg of product and the “LAL ng … per mg of product” value is 3.9 ng of LPS equivalent per mg of product. Moreover, in series [2] (10 μg/ml), the “Dextran % CD” value is listed as 86.5% and the “Dextran Fluorescence” value is on record as 6.4. In series [3], this compound came in with a Max amplitude of 1.75 O.D, a Min amplitude of 0.80 O.D, a Max concentration of 50 µg/mL and an EC50 conc of 32.0 µg/mL (≈ 31.6 µM). This compound also showed a Min concentration in series [3] of 8.20 µg/mL.

Take `CCCCCCCCCCCC(=O)O[C@H](CCCCCCCCCCC)CC(=O)N[C@H](CC(=O)N[C@@H](CCCCN)C(=O)O)C(=O)NCCC[C@H](CO)NC(=O)C[C@H](O)CCCCCCCCCCC` [OM-197-Lys]: in series [1], the “LAL EU/mg of product” value is recorded as 3 EU/mg of product and the “LAL ng … per mg of product” value is recorded as 0.24 ng of LPS equivalent per mg of product. Moreover, in series [2] (10 μg/ml), the “Dextran % CD” value is on record as 12.1% and the “Dextran Fluorescence” value is 0.5. In series [3], this compound returned a Max amplitude of 1.56 O.D, a Min amplitude of under 0.86 O.D, a Max concentration of 25 µg/mL and an EC50 conc of 3.3 µg/mL (≈ 3.31 µM). The compound also gave a Min concentration in series [3] of under 0.39 µg/mL.

With `CCCCCCCCCCCC(=O)O[C@H](CCCCCCCCCCC)CC(=O)NC(CCOP(=O)(O)O)C(=O)NCCC[C@H](COC(=O)CCCCCN)NC(=O)C[C@H](O)CCCCCCCCCCC` (mixture of isomers) [OM-197-MP-AC (R/S, R), (3RS,9R)-3-[(R)-3-dodecanoyloxytetradecanoylamino]-4oxo-5-aza-9-[(R)-3-hydroxytetradecanoylamino]-decan-10-ol 1-dihydrogen-phosphate(6-aminohexanoate)], in series [1], the “LAL EU/mg of product” value is recorded as 0.14 EU/mg of product and the “LAL ng … per mg of product” value is given as 0.011 ng of LPS equivalent per mg of product. Besides, in series [2] (10 μg/ml), the “Dextran % CD” value is reported as 84.6% and the “Dextran Fluorescence” value is listed as 6.3. Moreover, in series [2] (DC-9 stage, FIG. 74), the “phagocytic capacity retained (% incorporation of FITC-Dextran of unchallenged cells)” value was 22%. Also, the “concentration required to induce full decrease of Dextran take-up” value in series [2] (FIG. 74) is reported as “at least 1 μg/ml”. The “concentration inducing differentiation of DC-6 cells into DC-9 cells” value in series [2] (summary of phagocytosis and marker data) was found to be 0.1 µg/mL. In series [3], the Max amplitude stood at 2.12 O.D, the Min amplitude is given as 0.80 O.D, the Max concentration was determined as 25 µg/mL and the EC50 conc was found to be 3.1 µg/mL (≈ 2.96 µM). In series [3], this compound yielded a Min concentration of 0.71 µg/mL.

In the case of `CCCCCCCCCCCC(=O)O[C@H](CCCCCCCCCCC)CC(=O)N[C@H](CC(=O)N[C@@H](CC(=O)O)C(=O)O)C(=O)NCCC[C@H](CO)NC(=O)C[C@H](O)CCCCCCCCCCC` [OM-197-Asp, N—[(R)-3-dodecanoyloxytetradecanoyl]-D-aspartic acid, α-N-{(4R)-5-hydroxy-4-[(R)-3-hydroxytetradecanoylamino]-pentyl}Amide β-N-[(1S)-1,2-Dicarboxyethyl]Amide], in series [1], the “LAL EU/mg of product” value is reported as <2.5 EU/mg of product and the “LAL ng … per mg of product” value is listed as <0.2 ng of LPS equivalent per mg of product. Besides, in series [2] (10 μg/ml), the “Dextran % CD” value amounted to 26.4% and the “Dextran Fluorescence” value amounted to 2.4. For the same compound, in series [3], the Max amplitude came to 1.22 O.D, the Min amplitude turned out to be 0.80 O.D, the Max concentration stood at 25 µg/mL and the EC50 conc was 5.0 µg/mL (≈ 5.08 µM). Besides, the Min concentration in series [3] was 1.89 µg/mL.
